Results from PubChem BioAssay (NCI).
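All cell lines were grown in 96-well plates and treated with compound for 48 hours. TGI: total growth inhibition.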

Columns and labels:
Test in all cases: NCI-60 cell line screen, 48 h
SNB-75 CNS = system: SNB-75 CNS
OVCAR-8 ovarian = system: OVCAR-8 ovarian
SK-OV-3 ovarian = system: SK-OV-3 ovarian
HCT-116 colon = system: HCT-116 colon
RXF 393 renal = system: RXF 393 renal
CCRF-CEM leukemia = system: CCRF-CEM leukemia
SNB-19 CNS = system: SNB-19 CNS
HS 578T breast = system: HS 578T breast
A549 NSCLC = system: A549 NSCLC
OVCAR-3 ovarian = system: OVCAR-3 ovarian
MDA-N = system: MDA-N
UO-31 renal = system: UO-31 renal
U251 CNS = system: U251 CNS
MCF7 breast = system: MCF7 breast
A498 renal = system: A498 renal
TK-10 renal = system: TK-10 renal
M14 melanoma = system: M14 melanoma
CAKI-1 renal = system: CAKI-1 renal
IGROV1 ovarian = system: IGROV1 ovarian
RPMI-8226 leukemia = system: RPMI-8226 leukemia
K-562 leukemia = system: K-562 leukemia
SK-MEL-2 melanoma = system: SK-MEL-2 melanoma
T-47D breast = system: T-47D breast
DU-145 prostate = system: DU-145 prostate
COLO 205 colon = system: COLO 205 colon
MALME-3M melanoma = system: MALME-3M melanoma
BT-549 breast = system: BT-549 breast
UACC-62 melanoma = system: UACC-62 melanoma
786-0 renal = system: 786-0 renal
NCI-H23 lung = system: NCI-H23 lung
HOP-92 NSCLC = system: HOP-92 NSCLC
MDA-MB-435 = system: MDA-MB-435
HT29 colon = system: HT29 colon
SF-295 CNS = system: SF-295 CNS
SF-268 CNS = system: SF-268 CNS
PC-3 prostate = system: PC-3 prostate
EKVX NSCLC = system: EKVX NSCLC
UACC-257 melanoma = system: UACC-257 melanoma
SW-620 colon = system: SW-620 colon
HCT-15 colon = system: HCT-15 colon
NCI-H226 lung = system: NCI-H226 lung
MDA-MB-231 breast = system: MDA-MB-231 breast
KM12 colon = system: KM12 colon
SK-MEL-5 melanoma = system: SK-MEL-5 melanoma
HCC-2998 colon = system: HCC-2998 colon
SK-MEL-28 melanoma = system: SK-MEL-28 melanoma
HOP-62 NSCLC = system: HOP-62 NSCLC
NCI/ADR-RES ovarian = system: NCI/ADR-RES ovarian
OVCAR-4 ovarian = system: OVCAR-4 ovarian
SR leukemia = system: SR leukemia
LOX IMVI melanoma = system: LOX IMVI melanoma
OVCAR-5 ovarian = system: OVCAR-5 ovarian
SN12C renal = system: SN12C renal
NCI-H460 lung = system: NCI-H460 lung
ACHN renal = system: ACHN renal
MOLT-4 leukemia = system: MOLT-4 leukemia
SF-539 CNS = system: SF-539 CNS
NCI-H522 lung = system: NCI-H522 lung

SMILES: S=C(NCCc1ccccn1)c1nc[nH]c1C(=S)NCCc1ccccn1
- TGI (SNB-75 CNS): 83.3 µM
- TGI (OVCAR-8 ovarian): 82.4 µM
- TGI (SK-OV-3 ovarian): > 100 µM
- TGI (HCT-116 colon): > 100 µM
- TGI (RXF 393 renal): 87.9 µM
- TGI (CCRF-CEM leukemia): 81.1 µM
- TGI (SNB-19 CNS): > 100 µM
- TGI (HS 578T breast): 68.1 µM
- TGI (A549 NSCLC): > 100 µM
- TGI (OVCAR-3 ovarian): > 100 µM
- TGI (MDA-N): > 100 µM
- TGI (UO-31 renal): > 100 µM
- TGI (U251 CNS): > 100 µM
- TGI (MCF7 breast): > 100 µM
- TGI (A498 renal): > 100 µM
- TGI (TK-10 renal): > 100 µM
- TGI (M14 melanoma): > 100 µM
- TGI (CAKI-1 renal): > 100 µM
- TGI (IGROV1 ovarian): > 100 µM
- TGI (RPMI-8226 leukemia): > 100 µM
- TGI (K-562 leukemia): > 100 µM
- TGI (SK-MEL-2 melanoma): > 100 µM
- TGI (T-47D breast): 60.6 µM
- TGI (DU-145 prostate): > 100 µM
- TGI (COLO 205 colon): > 100 µM
- TGI (MALME-3M melanoma): > 100 µM
- TGI (BT-549 breast): > 100 µM
- TGI (UACC-62 melanoma): 56.2 µM
- TGI (786-0 renal): > 100 µM
- TGI (NCI-H23 lung): > 100 µM
- TGI (HOP-92 NSCLC): > 100 µM
- TGI (MDA-MB-435): > 100 µM
- TGI (HT29 colon): > 100 µM
- TGI (SF-295 CNS): > 100 µM
- TGI (SF-268 CNS): > 100 µM
- TGI (PC-3 prostate): > 100 µM
- TGI (EKVX NSCLC): > 100 µM
- TGI (UACC-257 melanoma): > 100 µM
- TGI (SW-620 colon): > 100 µM
- TGI (HCT-15 colon): > 100 µM
- TGI (NCI-H226 lung): > 100 µM
- TGI (MDA-MB-231 breast): > 100 µM
- TGI (KM12 colon): > 100 µM
- TGI (SK-MEL-5 melanoma): > 100 µM
- TGI (HCC-2998 colon): > 100 µM
- TGI (SK-MEL-28 melanoma): > 100 µM
- TGI (HOP-62 NSCLC): > 100 µM
- TGI (NCI/ADR-RES ovarian): 65.1 µM
- TGI (OVCAR-4 ovarian): > 100 µM
- TGI (SR leukemia): > 100 µM
- TGI (LOX IMVI melanoma): 45.5 µM
- TGI (OVCAR-5 ovarian): > 100 µM
- TGI (SN12C renal): > 100 µM
- TGI (NCI-H460 lung): 64.6 µM
- TGI (ACHN renal): > 100 µM

SMILES: O=C1/C(=C\c2cccc(Oc3ccccc3)c2)S(=O)(=O)C(c2ccccc2)N1c1cc(Cl)ccc1Cl (configuration not stated)
- TGI (SNB-75 CNS): 69.6 µM
- TGI (OVCAR-8 ovarian): 32.7 µM
- TGI (SK-OV-3 ovarian): 88.3 µM
- TGI (HCT-116 colon): 21.2 µM
- TGI (MOLT-4 leukemia): > 100 µM
- TGI (RXF 393 renal): 33.8 µM
- TGI (CCRF-CEM leukemia): 40.7 µM
- TGI (SNB-19 CNS): 35.7 µM
- TGI (HS 578T breast): 88.1 µM
- TGI (A549 NSCLC): > 100 µM
- TGI (OVCAR-3 ovarian): 41.9 µM
- TGI (MDA-N): 28.8 µM
- TGI (UO-31 renal): 39.6 µM
- TGI (U251 CNS): > 100 µM
- TGI (MCF7 breast): 45.1 µM
- TGI (A498 renal): > 100 µM
- TGI (TK-10 renal): 57.3 µM
- TGI (M14 melanoma): 44.1 µM
- TGI (CAKI-1 renal): > 100 µM
- TGI (IGROV1 ovarian): 56.2 µM
- TGI (RPMI-8226 leukemia): > 100 µM
- TGI (SF-539 CNS): > 100 µM
- TGI (K-562 leukemia): > 100 µM
- TGI (SK-MEL-2 melanoma): 76.9 µM
- TGI (T-47D breast): 82.4 µM
- TGI (DU-145 prostate): 76.7 µM
- TGI (COLO 205 colon): 48.4 µM
- TGI (MALME-3M melanoma): 42.4 µM
- TGI (BT-549 breast): 35.6 µM
- TGI (UACC-62 melanoma): 36.7 µM
- TGI (786-0 renal): 37.4 µM
- TGI (NCI-H23 lung): 44.3 µM
- TGI (HOP-92 NSCLC): 40.4 µM
- TGI (MDA-MB-435): 36.5 µM
- TGI (HT29 colon): > 100 µM
- TGI (SF-295 CNS): 33.1 µM
- TGI (SF-268 CNS): 42.3 µM
- TGI (PC-3 prostate): > 100 µM
- TGI (EKVX NSCLC): > 100 µM
- TGI (UACC-257 melanoma): 47.9 µM
- TGI (SW-620 colon): 10.8 µM
- TGI (HCT-15 colon): 74.6 µM
- TGI (MDA-MB-231 breast): > 100 µM
- TGI (KM12 colon): 76.9 µM
- TGI (SK-MEL-5 melanoma): 33.3 µM
- TGI (HCC-2998 colon): 56.6 µM
- TGI (SK-MEL-28 melanoma): 36.7 µM
- TGI (NCI-H522 lung): 40 µM
- TGI (HOP-62 NSCLC): 43.3 µM
- TGI (NCI/ADR-RES ovarian): 94.4 µM
- TGI (OVCAR-4 ovarian): > 100 µM
- TGI (SR leukemia): > 100 µM
- TGI (LOX IMVI melanoma): 23.8 µM
- TGI (OVCAR-5 ovarian): 58.6 µM
- TGI (SN12C renal): 35 µM
- TGI (NCI-H460 lung): > 100 µM
- TGI (ACHN renal): 44.6 µM
